According to publication PMC12261321, “Inhibitors of the Bacterioferritin Ferredoxin Complex Dysregulate Iron Homeostasis and Kill and Biofilm-Embedded Cells” (ACS Infectious Diseases, 2025):

Assays:
P. aeruginosa PAO1 [1] = test: Half maximal inhibitory concentration (IC50), planktonic growth (CFU/mL); assay type: cell-based; conditions: M63 media, 18 h
Procedure: Measurement of Half Maximal Inhibitory Concentration (IC50). IC50 values were determined as reported earlier13 with some modifications. Compound stock solutions in DMSO (100 mM and 10 mM) were prepared from powd er. To prep are the cell susp ensions utilized in the measu rements, starter cultures o f P. aeru ginosa wer e diluted to an optical density at 600 nm (OD600) = 0.005 in fresh LB media (5 mL) and then cultured at 37°C and 220 rpm for 4 h prior to diluting to an OD600 = 0.0001 in M63. A small volume of compound stock solution w as further diluted in DMSO to 30 µL and then diluted in M63 cell suspension to a final volume of 2.0 mL. The resultant solution was placed in a well of a 96-well plate and then serially 2-fold diluted in M63 cell suspension to produce 6 distinct com pound concent rations, each with 1.5% DMSO. Th e plate was co ver ed and incubated for 18 h at 35 °C in a Synergy H1 plate reader (Biotek). The resultant cell cultures were serially diluted in PBS and then plated on PI Agar plates (PIA; BD biosciences) for counting viable cells (CFU/mL). The % growth was calculated from the ratio CFU/mL(t reat ed )/CFU/mL(untreated control). To calculate the IC50 values, the % growth was plotted as a function of compound concentration expressed as log[compound] ( µM), and fitted to equation S1 describing the sigmoid- shaped response pattern, 14 where b is the slope factor, max is the upper asymptote (plateau), and min is the lower asymptote. IC 50 values are the average and standard deviation from three independent experiments , each conducted with thr ee techni cal replicates.

recombinant Pa BfrB = target: T1, recombinant Pa BfrB (Pseudomonas aeruginosa, UniProt Q9HY79); test: Dissociation constant (Kd), fluorescence quenching titration of apo Pa BfrB; assay type: binding, P. aeruginosa
T1 construct: made in house; host or cells: E. coli
T1 sequence (Q9HY79 whole entry): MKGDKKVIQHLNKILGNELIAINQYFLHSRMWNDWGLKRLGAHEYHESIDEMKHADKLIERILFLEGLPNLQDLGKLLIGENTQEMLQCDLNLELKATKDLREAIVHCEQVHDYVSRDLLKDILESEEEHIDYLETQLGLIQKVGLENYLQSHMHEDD
Procedure: Measurement of Dissociation Constant (Kd) R ecombinant Pa BfrB was expressed in E. coli and purified as previously reported.19 Apo-BfrB (devoid of heme) was utilized for the measurements to prevent heme-driven fluorescence quenching. A 0.5 mL solution contai ning 0.01 µM apo Pa-BfrB in PBS (pH = 7.4) containing0.5% DMSO was plac ed into a 1 cm quartz cuvette wh ere it was titrated with aliq uots of compound dissolved in a 50% (v/v) PBS/DMSO solution. The fluorescence quenching brought by the addition of each aliquot was monitored with the aid of an Agilent Cary Fluorometer , with excitation at 280 nm, emission at 320- 470 nm, 10 x10 nm slit width, and an average of 5 scans per spectrum. Th e binding assay included at least 8 aliquots spanning from ~ 0.1 […]
A control titration was carried out by titrati ng compound into PBS buffer. The Kd was cal culated by fitting the data to equation S4, w here Fb is the fraction bound and Fmax is the fraction bound at saturating compound concentration.
FFbb = FFmmmmmm ? [ccccmmccccccmmcc ]? (S4) […]

P. aeruginosa PAO1 [2] = test: Compound intracellular accumulation in P. aeruginosa PAO1; assay type: cell-based; conditions: cells treated with 30 µM compound
Procedure: Determination of Compound Intracellular Accumulation. These experiments were carri ed out as reported previously,16 with modifications. Starter cultures o f P. aeruginosa PAO1 or A. baumannii 5075 were centrifuged for 10 min at 3148 x g and 4 °C, resuspended in 5 mL of fresh LB, diluted to OD 600 = 0.03 in fresh LB media (250 mL), and then cultured at 35 °C and 220 rpm for 4 h. Th e resultant cul ture was diluted to OD600 = 0.4 in 250 mL LB and centrifuged at 4 °C and 3470 x g for 10 min. The cell pellet was resuspended in 20 mL of PBS and transfer red to a 50 mL conical tube, where it was centrifuged at 4 °C and 3148 x g for 20 min. The cell pellet was resuspended in 15 mL of PBS supplemented with 0.05% (w/v) HPMC and the suspension was divided equally into two new conical tubes. One of th e tubes was treated with 150 µL of DMSO (control), while the second tube was treated with 150 µL of compound in DMSO solution to produce a compound final concentration of 30 µM or 15 µM. The resultant mixtures were incubated at 37 °C and 220 rpm for 15 min, placed on ice for 1 min, and then centrifuged at 3148 x g rpm and 4 °C for 10 min. The cell pellet was resuspended in 7.5 mL of ice -cold PBS and vortexed (10 s, five t imes). 200 µL of the cell suspension was used to plate and enumerate viable cells, and 800 µL of the suspension was lay ered onto 700 µL of chilled silicon oil contained in 1.5 mL Eppendo rf tubes and then centrifuged at 4 °C ( 900 x g) for 10 min, then again at 16,200 x g for 5 min to allow pass ag e of the cell suspension through the silicon oil layer. The aqueous and oil layers were removed, and the cell pellet was washed twice in PBS (800 μ L), each time transferring the cell suspension to a new Eppendorf tube and then centrifuging at 16,200 x g. The cell pellet was lysed in 800 µL methanol by vortexing followed by 10 min incubationat room temperatur e. The lysate suspension was pelleted, the supernatant was transferred to a new Eppendorf tube and then placed into a vacuum concentrator (Eppendorf 5301 Vacufuge) to evaporate the methanol (4 h). The dried […]
cell lysate was resuspend ed in 600 µL of DMSO and centrifuged at 16,200 x g rpm for 5 min at room temperature.
The clarified supernatant was titrated with small volumes of 250 µM compound stock, measuring the fluorescen ce after the addition of each aliquot with the aid of a Cary Eclipse Fluorescence Spectrometer (Agilent). The compound concentration was determined utilizing the standard addition method,17 and compound accumulation is reported as nmol compound/1012 CFU/mL. […]
Eclipse) fluorescen ce sp ectrophotometer. The flu orescen ce intensity of th e treated sample (FI)Tr and that of the untreated control (FI)Un was normalized to the corresponding OD600 and the ratio (FI/OD600)Tr / (F I/ OD600)Un is […]
The determination for each of the compounds was carri ed out in 5 biological replicates.
Determination of Siderophores Secreted by A. baumannii . The chromo azurol S (CAS) solution was prepared as previously reported18 with some modifications. The blue dye solution (0.6 g/L CAS ( ACROS Organics), 100 μM FeCl3·6H2O, and 0.73 g/L hexadecyltrimethylammonium bromide (HDTMA, ACROS Organics) was autoclaved and stored in the dark. The MM9-PIPES buffer solution (3 g/L KH2PO4, 5 g/L NaCl, 10 g/L NH4C l, 32.24 g/L piperazine -1,4-bis-2- ethanesulfonic acid (PIPES , Sigma Aldrich), pH 6.75) was sterilized using a 0.22 µm syringe filter (VWR). Prior to every experimen t, blue dye solution (0.5 mL) was mixed with 4.5 mL of MM9-PIPES solution. An overnight culture of A. baumannii 5075 was diluted to OD600 = 0.0001 with modified M63 media (no citric acid) supplemented with 4 μ M Fe and transferred to a 96-well plate, wh ere it was cul tured for 20

[3] = Pseudomonas aeruginosa, PAO1, planktonic cells

| SMILES | IC50, P. aeruginosa PAO1 (P. aeruginosa PAO1 [1]; planktonic cells) | Kd (recombinant Pa BfrB) [µM] | Intracell. Accum, P. aeruginosa PAO1 (P. aeruginosa PAO1 [2]) [nmol/1012 CFU] | IC50 (P. aeruginosa PAO1 [1]; planktonic cells) [µM] | IC50 (P. aeruginosa PAO1 [1]; [3]) [µM] |
| --- | --- | --- | --- | --- | --- |
| O=C1NC(=O)c2c(NCc3cccc(Br)c3O)cccc21 [EB-5-73] | Not active | 7 ± 2 | 34 ± 9 |  |  |
| O=C1NC(=O)c2c(NCc3cc(Br)ccc3O)cccc21 [KM-5-35, 4-((5-Bromo-2-hydroxybenzyl)amino)isoindoline-1,3-dione] |  | 9 ± 3 | 360 ± 22 | 27 ± 3 |  |
| O=C1NC(=O)c2c(NCc3cc(Cl)ccc3O)ccc(Br)c21 [SB-16-51] |  | 13 ± 2 |  | 18 ± 3 |  |
| O=C1NC(=O)c2c(NCc3ccc(Br)cc3O)cccc21 [EB-5-61] |  | 13 ± 3 | 197 ± 17 | 24 ± 2 |  |
| Cc1cccc(CNc2cccc3c2C(=O)NC3=O)c1O [EB-5-70] | Not active | 17 ± 2 |  |  |  |
| O=C1NC(=O)c2c(NCc3c(O)cccc3F)cccc21 [EB-5-71] |  | 56 ± 10 |  | 80 ± 10 |  |
| O=C1NC(=O)c2c(NCc3cc(Br)cc(F)c3O)cccc21 [SB-16-118] |  | 4 ± 0.3 | 126 ± 40 | 25 ± 8 |  |
| O=C1NC(=O)c2c(NCc3cc(F)ccc3O)cccc21 [JAG-5-7] |  | 24 ± 6 | 28 ± 10 |  | 83 ± 19 |
| O=C1NC(=O)c2c(NCc3cc(Br)c(F)cc3O)cccc21 [SB-16-112] |  | 2 ± 0.6 |  | 14 ± 3 |  |
| O=C1NC(=O)c2c(NCc3cc(Cl)ccc3O)cccc21 [KM-5-25, 4-((5-Chloro-2-hydroxybenzyl)amino)isoindoline-1,3-dione] |  | 10 ± 2 | 270 ± 48 | 31 ± 7 |  |
| O=C1NC(=O)c2c(NCc3cc(Br)ccc3O)ccc(Cl)c21 [SB-16-124] |  | 11 ± 1 |  | 17 ± 2 |  |
| O=C1NC(=O)c2c(NCc3ccc4c(c3)COC4)cccc21 [SB-17-80] | Not active | 11 ± 3 |  |  |  |
| O=C1NC(=O)c2c(NCc3cccc4c3CCN4)cccc21 [SB-17-140] | Not active | 37 ± 1 |  |  |  |
| O=C1NC(=O)c2c(NCc3c(O)cccc3Cl)cccc21 [KM-5-29] |  | 18 ± 3 | 351 ± 25 | 36 ± 5 |  |
| O=C1NC(=O)c2c(NCc3cc(Cl)c(O)cc3O)cccc21 [SB-16-160] |  | 77 ± 10 |  | 45 ± 6 |  |
| O=C1NC(=O)c2c(NCc3c(O)cccc3Br)cccc21 [EB-5-72] |  | 15 ± 3 |  | 32 ± 5 |  |
| Cc1cc(Cl)cc(CNc2cccc3c2C(=O)NC3=O)c1O [SB-16-156] |  | 7 ± 2 |  | 21 ± 5 |  |
| O=C1NC(=O)c2c(NCc3ccccc3O)cccc21 [Analog 11, 4-((2-Hydroxybenzyl)amino)isoindoline-1,3-dione] |  |  |  |  | 178 ± 14 |
| O=C1NC(=O)c2c(NCc3cc(Cl)cc(O)c3O)cccc21 [SB-16-168] |  | 12 ± 2 |  |  | 15 ± 7 |
| Cc1cc(Br)cc(CNc2cccc3c2C(=O)NC3=O)c1O [SB-16-106] |  | 3 ± 1 |  | 14 ± 4 |  |
| O=C1NC(=O)c2c(NCc3cc(Br)c(O)cc3O)cccc21 [SB-16-137] |  | 9 ± 0.4 | 33 ± 1 | 37 ± 4 |  |
| O=C1NC(=O)c2c(NCc3cc(F)ccc3O)ccc(Br)c21 [SB-16-67] |  | 7 ± 1 | 187 ± 59 | > 40 |  |
| O=C1NC(=O)c2c(NCc3cccc(F)c3O)cccc21 [EB-5-80] | Not active | 49 ± 7 | 11 ± 3 |  |  |
| Cc1cc(CNc2cccc3c2C(=O)NC3=O)c(O)cc1Br [SB-16-183] |  | 3 ± 0.6 |  | 13 ± 1 |  |
| CC(C)(C)c1ccc(O)c(CNc2cccc3c2C(=O)NC3=O)c1 [SB-16-53] |  | 1 ± 0.2 |  |  | 12 ± 6 |
| O=C1NC(=O)c2c(NCc3cc(Br)cc(O)c3O)ccc(Br)c21 [SB-16-250] |  | 15 ± 3 |  | 5 ± 2 |  |
| O=C1NC(=O)c2c(NCc3cccc(Cl)c3O)cccc21 [KM-5-30] |  | 11 ± 3 | 42 ± 1 | 57 ± 2 |  |
| O=C1NC(=O)c2c(NCc3cc(Br)cc(O)c3O)cccc21 [SB-16-136] |  | 7 ± 1 |  | 20 ± 5 |  |
| Cc1ccc(CNc2cccc3c2C(=O)NC3=O)c(O)c1 [EB-5-69] | Not active | 45 ± 6 | 52 ± 2 |  |  |
